Reference: patent US8501755B2, “Tetrahydropyridothienopyrimidine compounds and methods of use thereof” (Bayer Intellectual Property GmbH, priority 2006, dated 2013)

Key:
Format in all cases: cell-based
[1] = tested on: H1975 cells; experiment: In vitro tumor cell proliferation assay (Cell Titer-Glo) in H1975 cells; details: NCI-H1975; H1975 human NSCLC expressing mutant HER1 (L858R,T790M); 72 hours exposure; read-out: IC50, activities in H 1975 cell lines
Procedure, shortened: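 After 72 h compound exposure at 37° C (top 10 uM down to 64 pM, 0.1% DMSO), viability of EGFR L858R/T790M-mutant H1975 cells was read as ATP luminescence.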

[2] = tested on: A431 cells; experiment: In vitro tumor cell proliferation assay (Cell Titer-Glo) in A431 cells; details: Homo sapiens, A-431, 72 h, A431 human epidermoid carcinoma overexpressing HER1; 72 hours exposure; read-out: IC50, activities in A431 cell lines
Procedure, shortened: (§1)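 Viability after 72 h drug exposure at 37 °C was read as CellTiter-Glo ATP luminescence, giving IC50. Cells (2.5×10^3/well, RPMI + 10% FBS) were compound-treated one day post-seeding, 0.1% DMSO final: A431 overexpresses HER1, N87 overexpresses HER2 and HER1.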

[3] = tested on: N87; experiment: In vitro tumor cell proliferation assay (Cell Titer-Glo) in N87 cells; details: N87 human gastric carcinoma overexpressing HER2 and HER1; 72 hours exposure; read-out: IC50, activities in N87 cell lines
Procedure, shortened: as §1

Row | Compound | IC50 [1] [nM] | IC50 [2] [nM] | IC50 [3] [nM]
1 | CC(C)N(C)C/C=C/C(=O)N1CCc2c(sc3ncnc(Nc4ccc5c(ccn5Cc5cccc(F)c5)c4)c23)C1 [Example 122, N-[1-(3-fluorobenzyl)-1H-indol-5-yl]-7-{(2E)-4-[isopropyl(methyl)amino]but-2-enoyl}-5,6,7,8-tetrahydropyrido [4′,3′:4,5]thieno[2,3-d]pyrimidin-4-amine] | < 200 | 200 to 1000 | < 200
2 | CC(C)N(C)C/C=C/C(=O)N1CCc2c(sc3ncnc(Nc4ccc5c(cnn5Cc5cccc(F)c5)c4)c23)C1 [Example 123, N-[1-(3-fluorobenzyl)-1H-indazol-5-yl]-7-{(2E)-4-[isopropyl(methyl)amino]but-2-enoyl}-5,6,7,8-tetrahydropyrido [4′,3′:4,5]thieno[2,3-d]pyrimidin-4-amine] | < 200 | < 200 | < 200
3 | CN(C/C=C/C(=O)N1CCc2c(sc3ncnc(Nc4ccc5c(cnn5Cc5cccc(F)c5)c4)c23)C1)C(C)(C)C [Example 124, 7-{(2E)-4-[tert-butyl(methyl)amino]but-2-enoyl}-N-[1-(3-fluorobenzyl)-1H-indazol-5-yl]-5,6,7,8-tetrahydropyrido [4′,3′:4,5]thieno[2,3-d]pyrimidin-4-amine] | < 200 | < 200 | < 200
4 | CN(C/C=C/C(=O)N1CCc2c(sc3ncnc(Nc4ccc5c(ccn5Cc5cccc(F)c5)c4)c23)C1)C(C)(C)C [Example 125, 7-{(2E)-4-[tert-butyl(methyl)amino]but-2-enoyl}-N-[1-(3-fluorobenzyl)-1H-indol-5-yl]-5,6,7,8-tetrahydropyrido [4′,3′:4,5]thieno[2,3-d]pyrimidin-4-amine] | 200 to 1000 | 200 to 1000 | < 200
5 | CN(C/C=C/C(=O)N1CCc2c(sc3ncnc(Nc4ccc5c(cnn5Cc5ccccc5)c4)c23)C1)C(C)(C)C [Example 126, N-(1-benzyl-1H-indazol-5-yl)-7-{(2E)-4-[tert-butyl(methyl)amino]but-2-enoyl}-5,6,7,8-tetrahydropyrido [4′,3′:4,5]thieno[2,3-d]pyrimidin-4-amine] | < 200 | < 200 | < 200
6 | CCN(C)C/C=C/C(=O)N1CCc2c(sc3ncnc(Nc4ccc5c(ccn5Cc5ccccn5)c4)c23)C1 [Example 127, 7-{(2E)-4-[ethyl(methyl)amino]but-2-enoyl}-N-[l-(pyridin-ylmethyl)1H-indol-5-yl]-5,6,7,8-tetrahydropyrido [4′,3′:4,5]thieno[2,3-d]pyrimidin-4-amine] | 200 to 1000 | 200 to 1000 | < 200
7 | CN(C/C=C/C(=O)N1CCc2c(sc3ncnc(Nc4ccc5c(cnn5Cc5ccccn5)c4)c23)C1)C(C)(C)C [Example 128, 7-{(2E)-4-[tert-butyl(methyl)amino]but-2-enoyl}-N-[1-(pyridin-2-ylmethyl)-1H-indazol-5-yl]-5,6,7,8-tetrahydropyrido [4′,3′:4,5]thieno[2,3-d]pyrimidin-4-amine] | 200 to 1000 | 200 to 1000 | < 200
8 | CN(C/C=C/C(=O)N1CCc2c(sc3ncnc(Nc4ccc5c(ccn5Cc5ccccn5)c4)c23)C1)C(C)(C)C [Example 129] | < 200 | 200 to 1000 | < 200
9 | O=C(C#CCCN1CCCCC1)N1CCc2c(sc3ncnc(Nc4ccc(OCc5ccccn5)c(Cl)c4)c23)C1 [Example 132, N-[3-chloro-4-(pyridin-2-ylmethoxy)phenyl]-7-(5-piperidin-1-ylpent-2-ynoyl)-5,6,7,8-tetrahydropyrido[4′,3′:4,5]-thieno[2,3-d]pyrimidin-4-amine] | 200 to 1000 | 200 to 1000 | < 200
10 | C#Cc1cccc(Nc2ncnc3sc4c(c23)CCN(C(=O)C#CCN(C)C)C4)c1 [Example 133, 7-[4-(dimethylamino)but-2-ynoyl]-N-(3-ethynylphenyl)-5,6,7,8-tetrahydropyrido [4′,3′:4,5]thieno[2,3-d]pyrimidin-4-amine] | 200 to 1000 | 200 to 1000 | < 200
11 | CN(C)CC#CC(=O)N1CCc2c(sc3ncnc(Nc4ccc(F)c(Cl)c4)c23)C1 [Example 134, N-(3-chloro-4-fluorophenyl)-7-[4-(dimethylamino)but-2-ynoyl]-5,6,7,8-tetrahydropyrido [4′,3′:4,5]thieno[2,3-d]pyrimidin-4-amine] | 200 to 1000 | 200 to 1000 | < 200
12 | CN(C)CC#CC(=O)N1CCc2c(sc3ncnc(Nc4ccc(OCc5ccccn5)c(Cl)c4)c23)C1 [Example 135, N-[3-chloro-4-(pyridin-2-ylmethoxy)phenyl]-7-[4-(dimethylamino)but-2-ynoyl]-5,6,7,8-tetrahydropyrido [4′,3′:4,5]thieno[2,3-d]pyrimidin-4-amine] | < 200 | 200 to 1000 | < 200
13 | O=C(C#CCN1CCOCC1)N1CCc2c(sc3ncnc(Nc4ccc(OCc5ccccn5)c(Cl)c4)c23)C1 [Example 136, N-[3-chloro-4-(pyridin-2-ylmethoxy)phenyl]-7-(4-morpholin-4-ylbut-2-ynoyl)-5,6,7,8-tetrahydropyrido [4′,3′:4,5]thieno[2,3-d]pyrimidin-4-amine] | 1000 to 10000 | 1000 to 10000 | < 200
14 | O=C(C#CCN1CCOCC1)N1CCc2c(sc3ncnc(Nc4ccc(OCc5cccc(F)c5)c(Cl)c4)c23)C1 [Example 139, N-{3-chloro-4-[(3-fluorobenzyl)oxy]phenyl}-7-(4-morpholin-4-ylbut-2-ynoyl)-5,6,7,8-tetrahydropyrido [4′,3′:4,5]thieno[2,3-d]pyrimidin-4-amine] | 200 to 1000 | 200 to 1000 | < 200
15 | O=C(C#CCCN1CCCCC1)N1CCc2c(sc3ncnc(Nc4ccc(F)c(Cl)c4)c23)C1 [Example 140, N-(3-chloro-4-fluorophenyl)-7-(5-piperidin-1-ylpent-2-ynoyl)-5,6,7,8-tetrahydropyrido [4′,3′:4,5]thieno[2,3-d]pyrimidin-4-amine] | 200 to 1000 | 200 to 1000 | < 200
16 | C#Cc1cccc(Nc2ncnc3sc4c(c23)CCN(C(=O)C#CCCN2CCCCC2)C4)c1 [Example 141, N-(3-ethynylphenyl)-7-(5-piperidin-1-ylpent-2-ynoyl)-5,6,7,8-tetrahydropyrido [4′,3′:4,5]thieno[2,3-d]pyrimidin-4-amine] | 200 to 1000 | 200 to 1000 | < 200
17 | O=C(C#CCCN1CCCCC1)N1CCc2c(sc3ncnc(Nc4ccc(OCc5cccc(F)c5)c(Cl)c4)c23)C1 [Example 142, N-{3-chloro-4-[(3-fluorobenzyl)oxy]phenyl}-7-(5-piperidin-1-ylpent-2-ynoyl)-5,6,7,8-tetrahydropyrido [4′,3′:4,5]thieno[2,3-d]pyrimidin-4-amine] | 200 to 1000 | 200 to 1000 | < 200

Second part, the molecule after the results:

Row | IC50 [1] [nM] | IC50 [2] [nM] | IC50 [3] [nM] | Compound
18 | 200 to 1000 | 200 to 1000 | < 200 | C=C(CN(CC)CC)C(=O)N1CCc2c(sc3ncnc(Nc4ccc(OCc5ccccn5)c(Cl)c4)c23)C1 [Example 143, N-[3-chloro-4-(pyridin-2-ylmethoxy)phenyl]-7-{2-[(diethylamino)methyl]acryloyl}-5,6,7,8-tetrahydropyrido[4′,3′:4,5]thieno[2,3-d]pyrimidin-4-amine]
19 | 1000 to 10000 | 1000 to 10000 | < 200 | C=C(CN1CCOCC1)C(=O)N1CCc2c(sc3ncnc(Nc4ccc(OCc5ccccn5)c(Cl)c4)c23)C1 [Example 144]
20 | 1000 to 10000 | 1000 to 10000 | 200 to 5000 | C=C(CN1CCOCC1)C(=O)N1CCc2c(sc3ncnc(Nc4ccc(F)c(Cl)c4)c23)C1 [Example 145, N-(3-chloro-4-fluorophenyl)-7-[2-(morpholin-4-ylmethyl)acryloyl]-5,6,7,8-tetrahydropyrido [4′,3′:4,5]thieno[2,3-d]pyrimidin-4-amine]
21 | 1000 to 10000 | 1000 to 10000 | < 200 | C=C(CN1CCOCC1)C(=O)N1CCc2c(sc3ncnc(Nc4ccc(OCc5cccc(F)c5)c(Cl)c4)c23)C1 [Example 146, N-{3-chloro-4-[(3-fluorobenzyl)oxy]phenyl}-7-[2-(morpholin-4-ylmethyl)acryloyl]-5,6,7,8-tetrahydropyrido [4′,3′:4,5]thieno[2,3-d]pyrimidin-4-amine]
22 | 1000 to 10000 | 200 to 1000 | < 200 | C=C(CN(CC)CC)C(=O)N1CCc2c(sc3ncnc(Nc4ccc(F)c(Cl)c4)c23)C1 [Example 147, N-(3-chloro-4-fluorophenyl)-7-{2-[(diethylamino)methyl]acryloyl}-5,6,7,8-tetrahydropyrido [4′,3′:4,5]thieno[2,3-d]pyrimidin-4-amine]
23 | 1000 to 10000 | 1000 to 10000 | < 200 | C#Cc1cccc(Nc2ncnc3sc4c(c23)CCN(C(=O)C(=C)CN(CC)CC)C4)c1 [Example 148, 7-{2-[(diethylamino)methyl]acryloyl}-N-(3-ethynylphenyl)-5,6,7,8-tetrahydropyrido [4′,3′:4,5]thieno[2,3-d]pyrimidin-4-amine]
24 | 200 to 1000 | 200 to 1000 | < 200 | C=C(CN(CC)CC)C(=O)N1CCc2c(sc3ncnc(Nc4ccc(OCc5cccc(F)c5)c(Cl)c4)c23)C1 [Example 149, N-{3-chloro-4-[(3-fluorobenzyl)oxy]phenyl}-7-{2-[(diethylamino)methyl]acryloyl}-5,6,7,8-tetrahydropyrido [4′,3′:4,5]thieno[2,3-d]pyrimidin-4-amine]
